Results reported in patent publication US20080027072A1, “Potentiation of MC4 receptor activity” (AMPLA Pharmaceuticals, Inc., priority 2006, published 2008).

Legend:
[1] = target: T1, human Melonocortin-4 (MC4) receptor (Homo sapiens, UniProt P32245); assay: α-MSH dose-response, intracellular Ca2+ (Indo-1) flow cytometry (DSIS) in clonal MC4 cells, +/- compound; assay type: cell-based; settings: compound at a concentration of 1-10 μM
T1 construct: expressed in transfected cells; host or cells: HEK293 (ATCC), G418-selected, FACS-sorted clonal cMC4 line
T1 sequence (P32245 whole entry): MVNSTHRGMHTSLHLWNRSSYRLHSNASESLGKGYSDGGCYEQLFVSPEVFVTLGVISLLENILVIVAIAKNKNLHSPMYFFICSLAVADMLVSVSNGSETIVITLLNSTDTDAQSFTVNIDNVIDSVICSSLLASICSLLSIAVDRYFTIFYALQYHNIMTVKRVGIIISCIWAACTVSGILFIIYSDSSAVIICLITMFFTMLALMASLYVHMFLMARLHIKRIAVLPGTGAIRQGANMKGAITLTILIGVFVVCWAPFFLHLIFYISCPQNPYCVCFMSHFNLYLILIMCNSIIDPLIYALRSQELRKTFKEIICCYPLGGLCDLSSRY
Protocol: The cMC4 and Control Cells were plated 24-48 hours in advance, and were harvested with trypsin at ˜80% confluency. Cells were then centrifuged and resuspended two times in Hybridoma Media, the final time at a concentration of 1×10^6 cells/mL. Both cell lines were then loaded with 2 mM of Indo-1 plus 3 μg/mL Biotin-X DHPE and then were incubated for 1 hour on a rotator at room temperature. Cells were washed two times and resuspended at a concentration of 1×10^6 cells/mL in Hybridoma Media. The cMC4 cell line then got 2 μg/ml of Alexa 488-streptavidin (Invitrogen/Molecular Probes). Cells were incubated for an additional 30 minutes on a rocker at room temperature. […]
The probe-loaded cMC4 and Control cell mixture was placed in the Cell Suspension System on the DSIS where they were continuously rocked to keep them in a suspended state. […] The DSIS software, NVS Sampler, recorded a timing file and the CyAn software, Summit, recorded a data file. These two files were then compiled and analyzed by NVS Analyzer (see below) to determine the percent of cells that responded to each concentration. The data were transferred to GraphPAD Prism (GraphPad Software, San Diego, Calif.) for a non-linear regression curve fit that determined the EC50. […]
When the screen was complete, the data files and the timing files were analyzed using NVS Analyzer. […]

MC4 receptor [2] = target: T2, MC4 receptor (Homo sapiens, UniProt P32245); assay: ELISA-based cAMP assay in HEK293 cells stably expressing human MC4 receptors; assay type: cell-based; parameters: expressed in transfected cells; host or cells: HEK293 stably expressing human MC4 receptor
T2 sequence (P32245 whole entry): as above
Protocol: ELISA-based cAMP assay was used to determine ligand-induced cAMP accumulation in HEK293 cells stably expressing human MC4 receptors in 96-well plate format. Compounds and cAMP standards were diluted in DMEM (without FBS and phenol red) containing 1 mM IBMX. Cells were plated in T-75 flasks and cultured for 24 h before use. Cells were removed from tissue culture flasks using enzyme-free cell dissociation buffer, washed and resuspended in DMEM (without FBS and phenol red) containing 1 mM IBMX at a density of 1×10^6 cells/ml. […] After incubation for 1 h, 50 μl of lysis buffer (0.5% NP-40 in TBS) was added, and incubated for 30 min. After adding rabbit anti-cAMP antibody (Sigma) diluted in TBST (TBS containing 0.05% Tween 20) (25 μl/well) and incubating for 30 min, 25 μl of cAMP-HRP conjugate dilution (in TBST) was added, and incubated for another 1 h. The plate was washed 6 times with TBST. To each well 200 μl of substrate (SuperSignal ELISA Pico Chemiluminesent substrate, Pierce, #37070) was added. The chemiluminescence activity was measured by a luminescence plate reader (NOVAstar, BMG Labtech). cAMP amount for each sample was estimated from cAMP standard curve.

[3] = system: diet-induced obese male wild-type C57BL/6J mice; assay: Food intake and body weight, diet-induced obese wild-type mice; assay type: in vivo; settings: 40 mg/kg oral, day 2, wild-type
Protocol: (§1) Mice were dosed at 40 mg/kg for two days with vehicle or test drug. Body weight and food and water intake were recorded daily.
(§2) The test compound was ground while being diluted in 1% methylcellulose, and the final solution was sonicated to give a uniform suspension suitable for dosing. Drug solutions were made up fresh each day 1-2 h before dosing and were administered using a dose volume in the range of 1-3 ml/kg.

MC4 receptor [4] = target: T2, MC4 receptor; assay: Binding experiments with the MC4 receptor inverse agonist AgRP (FIG. 6); parameters: expressed in transfected cells
[5] = system: diet-induced obese male MC4 knockout C57BL/6J mice; assay: Food intake and body weight, diet-induced obese MC4 knockout mice; assay type: in vivo; settings: 40 mg/kg oral
Protocol: as §1, §2

MC4 receptor [6] = target: T2, MC4 receptor; assay: Competition ligand binding assay with [125I]-NDP-α-MSH, HEK293 cell membranes; parameters: expressed in transfected cells; host or cells: HEK293 stably expressing human MC4 receptor
Protocol: The binding was carried out at room temperature for another 2 h. […] Binding was terminated by addition of cold binding buffer and filtration on Whatman GF/B glass-fiber filters using a sampling manifold. The filters were washed 6 times with cold binding buffer and air-dried overnight. The radioactivity was quantified on a TopCounter after adding scintillation fluid. […] Data were analyzed by non-linear regression using program GraphPAD Prism (FIG. 5).

MC4 receptor [7] = target: T2, MC4 receptor; assay: Single-well kinetics of the αMSH response (FIGS. 9A-9E); assay type: cell-based; parameters: expressed in transfected cells
Protocol: FIGS. 9A-9E show response kinetics from single-well assays. The response was initiated by αMSH with or without Compound 1. […] Whereas at 1 μM and 300 nM, αMSH onset and peak were increased and sustained. The onset and peak response increased with 3 μM and 10 μM concentrations of Compound 1 at all concentrations of αMSH.

[8] = system: diet-induced obese male C57BL/6J mice; assay: 28-day body weight and food intake study in diet-induced obese mice; assay type: in vivo; settings: day 29
Protocol: Sibutramine, which is currently used clinically, and rimonabant, which has recently received regulatory approval for the management of obesity were used as reference compounds.
C57BL/6J mice (7-8 weeks of age) were ordered from Charles River, Margate, Kent. Mice were group housed in polypropylene cages with free access to a high fat diet (D12451 45% of Kcal derived from fat; Research Diets, New Jersey, USA) and tap water at all times. Animals were maintained at 21±4° C. and 55±20% humidity on a normal phase 12 h light-dark cycle (lights on 04:30 h)
Animals were exposed to the high fat diet for 16 weeks. During this time body weight was recorded weekly. At the end of 14 weeks animals were singly housed in polypropylene cages for a further two week period (weeks 14-16) and placed on reverse phase lighting (lights off for 8 h from 9.30-17.30 h) during which time the room was illuminated by red light. Animals were dosed with vehicle orally throughout the baseline period. Body weight and food and water intake was recorded daily. Towards the end of the baseline period animals were allocated to groups. Upon completion of the baseline period, mice were dosed for 28 days with vehicle or test drug.
Body weight and food and water intake were recorded daily. Following drug administration the animals were examined and any overt behavior was recorded. For all dosing, the morning session was timed such that approximately half the mice were dosed at the time of lights out (09:30).
The test compounds were dissolved in 1% methylcellulose. Drug solutions were made up fresh each day 1-2 h before dosing and were administered using a dose volume in the range of 1-3 ml/kg. Drug doses were expressed as free base.
Resulting body weights, food intake and water intake were expressed as mean values±SEM, and the SEMs are calculated from residuals of the statistical model. Body weight data was analysed by ANCOVA with Day 1 as covariate followed by appropriate comparisons (two-tailed) to determine significant differences from the control group. […] Daily food and water intake data was analysed by ANOVA.

## OC1(c2ccc(Cl)cc2)CCN(Cc2c[nH]c3ccccc23)CC1 [Compound 1]
[1]
  shift in the EC50 of α-MSH: left shift
MC4 receptor [2]; FIG. 8, cAMP
  effect on AgRP activity: attenuates
  effect on α-MSH activity: potentiates
[3]
  body weight as compared to vehicle: statistically significant decrease
  reduction in food intake as compared to vehicle: ~40%
MC4 receptor [4]
  dissociation of AgRP from the MC4 receptor: increases the dissociation
[5]
  body weight as compared to vehicle: did not show a similar decrease
  reduction in food intake as compared to vehicle: did not show a similar reduction
MC4 receptor [6]
  EC50: 3.96 µM
MC4 receptor [7]; 3 μM and 10 μM Compound 1, all concentrations of αMSH
  onset and peak response to αMSH: increased
MC4 receptor [7]; 10 μM Compound 1, 100 nM and 30 nM αMSH (FIG. 9E)
  activity induced by the compound itself: low level activity
MC4 receptor [7]; low concentrations of Compound 1
  maximum peak response to αMSH: did not appreciably increase

## Clc1ccc(N2CCN(Cc3c[nH]c4ncccc34)CC2)cc1 [Compound 2]
[1]
  shift in the EC50 of α-MSH: left shift
MC4 receptor [2]; cAMP accumulation
  effect on the response of NDP-α-MSH: potentiate
MC4 receptor [6]
  EC50: 252 µM

## Cc1c(C(=O)NN2CCCCC2)nn(-c2ccc(Cl)cc2Cl)c1-c1ccc(Cl)cc1 [Rimonabant]
[8]; 10 mg/kg oral
  reduction of body weight: 15%
  weight reduction as compared to vehicle, significance: statistically significant weight reduction

## CC(C)CC(N(C)C)C1(c2ccc(Cl)cc2)CCC1 (stereo not drawn) [Sibutramine]
[8]; 20 mg/kg oral
  reduction of body weight: 2%
